The results in this text go back to ChEMBL document CHEMBL1133309, “Computational binding studies of human pp60c-src SH2 domain with a series of nonpeptide, phosphophenyl-containing ligands” (Bioorg Med Chem Lett, 2000).

A value given as a limit tells only on which side of the number the result lay.

The target of this assay is Proto-oncogene tyrosine-protein kinase Src (Homo sapiens, UniProt P12931). Description: Binding affinity for Human pp60c-src SH2 domain.
Sequence of Proto-oncogene tyrosine-protein kinase Src (P12931 2-536 limits assumed): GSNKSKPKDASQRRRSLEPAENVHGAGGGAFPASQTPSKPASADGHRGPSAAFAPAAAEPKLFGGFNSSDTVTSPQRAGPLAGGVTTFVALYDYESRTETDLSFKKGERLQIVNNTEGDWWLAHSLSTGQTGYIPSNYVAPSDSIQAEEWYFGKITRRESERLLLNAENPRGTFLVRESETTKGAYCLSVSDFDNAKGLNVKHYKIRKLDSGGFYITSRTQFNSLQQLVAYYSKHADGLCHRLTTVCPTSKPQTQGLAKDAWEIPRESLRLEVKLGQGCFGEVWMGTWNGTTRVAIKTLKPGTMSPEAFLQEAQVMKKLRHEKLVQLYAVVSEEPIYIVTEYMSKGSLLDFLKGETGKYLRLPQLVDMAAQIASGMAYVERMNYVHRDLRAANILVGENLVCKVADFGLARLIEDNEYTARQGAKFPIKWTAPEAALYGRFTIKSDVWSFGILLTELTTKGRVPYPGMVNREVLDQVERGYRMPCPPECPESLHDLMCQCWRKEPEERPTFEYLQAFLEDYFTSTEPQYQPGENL

A word on the IC50: it is the concentration that gives 50% inhibition. A higher IC50 goes with weaker potency. Compound `CC(=O)c1cc(CNC(=O)c2ccc(OP(=O)(O)O)cc2)ccc1OCC1CCCCC1` had an IC50 of 69 µM. Compound `CNC(=O)c1cc(CNC(=O)c2ccc(OP(=O)(O)O)cc2)ccc1OCC1CCCCC1` yielded an IC50 of 30 µM. As for `O=C(NCc1ccc(OCC2CCCCC2)cc1)c1ccc(OP(=O)(O)O)cc1`, the half-maximal inhibitory concentration (IC50) is above 100 µM.
